Experimental findings from patent US11046680B1, “Heteroaryl-substituted triazoles as APJ receptor agonists” (priority 2016, dated 2021) are described below.

The target of the assay is human APJ receptor (Homo sapiens (Human), UniProt P35414). In words: biochemical. The class given is biochemical. To be noted: [35S]GTPγS binding, CHO membranes expressing human APJ receptor; read-out: Activity hAPJ SPA EC50 IP. In outline:
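GTPγS binding on membranes from CHO cells stably expressing FLAG-tagged human APJ, with optimized GDP, MgCl2 and NaCl; incubated 90 min at RT before imaging read-out.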
For orientation: GTPγS resists hydrolysis and so accumulates on activated G proteins.

The structures appear in SMILES notation. A value given as a limit tells only on which side of the number the result lay.

human APJ receptor, sequence (P35414 whole entry): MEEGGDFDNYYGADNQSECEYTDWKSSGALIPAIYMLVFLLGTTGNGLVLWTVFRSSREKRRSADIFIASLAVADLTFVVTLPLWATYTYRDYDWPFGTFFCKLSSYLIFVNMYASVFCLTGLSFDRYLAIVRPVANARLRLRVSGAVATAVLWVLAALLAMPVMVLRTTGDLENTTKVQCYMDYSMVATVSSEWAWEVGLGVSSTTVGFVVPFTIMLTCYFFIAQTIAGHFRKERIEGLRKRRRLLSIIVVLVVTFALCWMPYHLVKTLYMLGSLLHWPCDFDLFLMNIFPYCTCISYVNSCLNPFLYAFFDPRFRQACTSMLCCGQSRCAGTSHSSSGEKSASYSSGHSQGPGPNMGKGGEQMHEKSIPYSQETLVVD

Broadly, the EC50 is the concentration needed to bring the measured effect to its halfway point. For `COc1ccccc1-n1c(NS(=O)(=O)Cc2ccc(Cl)cc2)nnc1-c1ccc(F)s1` [Example 235.0, 1-(4-chlorophenyl)-N-(5-(5-fluoro-2-thiophenyl)-4-(2-methoxyphenyl)-4H-1,2,4-triazol-3-yl)methanesulfonamide], the EC50 was > 12500 nM.
Consider `COc1ccccc1-n1c(NS(=O)(=O)CCc2ccc(Cl)cc2)nnc1-c1cccs1` [Example 236.0, 2-(4-chlorophenyl)-N-(4-(2-methoxyphenyl)-5-(thiophen-2-yl)-4H-1,2,4-triazol-3-yl)ethanesulfonamide], for which the EC50 was 120 nM.
The result for `O=S(=O)(Cc1ccc(Cl)cc1)Nc1nnc(-c2cccs2)n1-c1ccccc1OC(F)F` [Example 237.0, 1-(4-chlorophenyl)-N-(4-(2-(difluoromethoxy)phenyl)-5-(2-thiophenyl)-4H-1,2,4-triazol-3-yl)methanesulfonamide] reads > 12500 nM; that for `COc1ccccc1-n1c(NS(=O)(=O)CCc2ccccc2)nnc1-c1cccs1` [Example 238.0, N-(4-(2-methoxyphenyl)-5-(2-thiophenyl)-4H-1,2,4-triazol-3-yl)-2-phenylethanesulfonamide], 226 nM; that for `COc1ccccc1-n1c(NS(=O)(=O)CCc2ccc(Cl)cc2)nnc1-c1ccc(F)s1` [Example 239.0, 2-(4-chlorophenyl)-N-(5-(5-fluorothiophen-2-yl)-4-(2-methoxyphenyl)-4H-1,2,4-triazol-3-yl)ethanesulfonamide], 210 nM.
For `O=S(=O)(CCc1ccc(Cl)cc1)Nc1nnc(-c2cccs2)n1-c1ccccc1OC(F)F` [Example 240.0, 2-(4-chlorophenyl)-N-(4-(2-(difluoromethoxy)phenyl)-5-(thiophen-2-yl)-4H-1,2,4-triazol-3-yl)ethanesulfonamide], the EC50 is 1310 nM.
The result for `O=S(=O)(CCc1ccc(Cl)cc1)Nc1nnc(-c2ccc(F)s2)n1-c1ccccc1OC(F)F` [Example 244.0, 2-(4-chlorophenyl)-N-(4-(2-(difluoromethoxy)phenyl)-5-(5-fluoro-2-thiophenyl)-4H-1,2,4-triazol-3-yl)ethanesulfonamide] reads 21 nM; that for `COc1ccc(C(=O)O)cc1-n1c(NS(=O)(=O)CCc2ccc(Cl)cc2)nnc1-c1cccs1` [Example 245.0, 3-(3-(2-(4-chlorophenyl)ethylsulfonamido)-5-(thiophen-2-yl)-4H-1,2,4-triazol-4-yl)-4-methoxybenzoic acid], 210 nM; that for `O=S(=O)(CCc1ccccc1)Nc1nnc(-c2ccc(F)s2)n1-c1ccccc1OC(F)F` [Example 246.0, N-(4-(2-(difluoromethoxy)phenyl)-5-(5-fluoro-2-thiophenyl)-4H-1,2,4-triazol-3-yl)-2-phenylethanesulfonamide], 39 nM.
Take `COc1ccc(C#N)cc1-n1c(NS(=O)(=O)CCc2ccc(Cl)cc2)nnc1-c1cccs1` [Example 247.0, 2-(4-chlorophenyl)-N-(4-(5-cyano-2-methoxyphenyl)-5-(thiophen-2-yl)-4H-1,2,4-triazol-3-yl)ethanesulfonamide]: the EC50 stood at 166 nM.
For the molecule `COc1ccc(NCCO)cc1-n1c(NS(=O)(=O)CCc2ccc(Cl)cc2)nnc1-c1cccs1` [Example 251.0, 2-(4-chlorophenyl)-N-(4-(5-((2-hydroxyethyl)amino)-2-methoxyphenyl)-5-(2-thiophenyl)-4H-1,2,4-triazol-3-yl)ethanesulfonamide], the EC50 was 460 nM.
The result for `COc1ccc(N(C)C)cc1-n1c(NS(=O)(=O)CCc2ccc(Cl)cc2)nnc1-c1cccs1` [Example 252.0, 2-(4-chlorophenyl)-N-(4-(5-(dimethylamino)-2-methoxyphenyl)-5-(2-thiophenyl)-4H-1,2,4-triazol-3-yl)ethanesulfonamide] reads 11 nM.
On to `CCS(=O)(=O)Nc1nnc(-c2ccn(C)n2)n1-c1c(OC)cccc1OC` [Example 267.0, N-(4-(2,6-dimethoxyphenyl)-5-(1-methyl-1H-pyrazol-3-yl)-4H-1,2,4-triazol-3-yl)ethanesulfonamide], for which the EC50 was 82 nM.
